From patent publication US8809001B2, “High throughput assays for inhibitors and activators of PAQR receptors” (University of Florida Research Foundation, Inc., priority 2007, dated 2014)
Read-outs that look alike come from different tables or passages of the source.

Tests used:
Ste2p GPCR = biological target: T1, Ste2p GPCR (Saccharomyces cerevisiae, UniProt D6VTK4); assay: FET3-lacZ reporter in yeast overexpressing Ste2p GPCR; type: cell-based; settings: 1 μM; overexpressed Ste2p, wild type cells (mat a), 2% galactose
T1 construct: expressed in transfected cells; host or cells: Saccharomyces cerevisiae wild type (mat a), pRS316-based GAL1-STE2 plasmid
T1 sequence (D6VTK4 1-431): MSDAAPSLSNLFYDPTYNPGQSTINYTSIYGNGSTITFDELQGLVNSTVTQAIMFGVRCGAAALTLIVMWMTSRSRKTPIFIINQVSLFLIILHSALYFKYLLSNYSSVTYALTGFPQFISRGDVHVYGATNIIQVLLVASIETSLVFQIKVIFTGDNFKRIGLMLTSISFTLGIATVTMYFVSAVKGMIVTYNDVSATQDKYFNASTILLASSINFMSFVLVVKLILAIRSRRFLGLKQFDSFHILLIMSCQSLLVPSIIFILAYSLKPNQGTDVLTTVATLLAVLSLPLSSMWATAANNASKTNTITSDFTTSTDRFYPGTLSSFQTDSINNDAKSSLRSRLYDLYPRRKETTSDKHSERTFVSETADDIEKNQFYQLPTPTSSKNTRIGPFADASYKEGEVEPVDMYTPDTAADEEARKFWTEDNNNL
Description: (§1) Plasmids and primers. Human PAQRs were cloned into various vectors by PCR from commercially/publically available cDNAs. PAQRs were cloned into the pYES260 (Melcher, 2000), pRS316 (Liu et al., 1992) or pGREG536 (Jansen et al., 2005) expression vectors using gap repair. The pJK90 plasmid containing a Dual Topology Reporter (DTR)-tagged OST4 gene driven by the constitutive TPI1 promoter was kindly provided by Dr. Gunnar von Heijne (Stockholm University) (Kim et al., 2003). The OST4 open reading frame in pJK90 was replaced with the PAQR6 and mPRα open reading frames by gap repair. Primers for all cloning reactions are listed herein. Proteins expressed in pYES260 have an N-terminal 6×-histidine tag followed by a TEV protease cleavage site. Proteins expressed in pGREG536 have an N-terminal 7×-HA tag. Proteins expressed in the pRS316 vector are untagged. The pYES260, pRS316 and pGREG536 vectors allow for galactose-inducible expression via the GAL1 promoter. […] The FET3-lacZ plasmid was previously described (Kupchak et al., 2007). […]
(§2) Assays and growth conditions. […] Cells were allowed to grow to mid-log phase at which time the activity of the FET3 gene was monitored using a FET3-lacZ promoter-reporter construct. lacZ activities are presented as a percentage of activity seen in untreated cells expressing the appropriate empty expression vector control. […]

PAQR9 = biological target: T2, PAQR9 (Homo sapiens, UniProt Q6ZVX9); assay: FET3-lacZ reporter repression in yeast expressing PAQR9; type: cell-based; settings: FET3-lacZ
T2 construct: expressed in transfected cells; host or cells: Saccharomyces cerevisiae BY4742, GAL1-driven pYES260 plasmid
T2 sequence (Q6ZVX9 1-377): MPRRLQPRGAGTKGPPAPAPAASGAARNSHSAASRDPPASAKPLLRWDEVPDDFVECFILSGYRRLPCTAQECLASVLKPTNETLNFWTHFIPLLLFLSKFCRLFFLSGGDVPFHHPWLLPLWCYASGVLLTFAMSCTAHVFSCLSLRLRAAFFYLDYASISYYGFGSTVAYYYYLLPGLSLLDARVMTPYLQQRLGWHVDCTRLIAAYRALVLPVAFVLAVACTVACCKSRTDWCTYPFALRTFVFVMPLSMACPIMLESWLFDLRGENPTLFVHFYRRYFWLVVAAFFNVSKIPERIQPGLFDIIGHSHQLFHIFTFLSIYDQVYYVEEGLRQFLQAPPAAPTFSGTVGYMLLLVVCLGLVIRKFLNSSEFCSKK
Description: (§3) Plasmids and primers. Human PAQRs were cloned into various vectors by PCR from commercially/publically available cDNAs. PAQRs were cloned into the pYES260 (Melcher, 2000), pRS316 (Liu et al., 1992) or pGREG536 (Jansen et al., 2005) expression vectors using gap repair. The pJK90 plasmid containing a Dual Topology Reporter (DTR)-tagged OST4 gene driven by the constitutive TPI1 promoter was kindly provided by Dr. Gunnar von Heijne (Stockholm University) (Kim et al., 2003). The OST4 open reading frame in pJK90 was replaced with the PAQR6 and mPRα open reading frames by gap repair. Primers for all cloning reactions are listed herein. Proteins expressed in pYES260 have an N-terminal 6×-histidine tag followed by a TEV protease cleavage site. Proteins expressed in pGREG536 have an N-terminal 7×-HA tag. Proteins expressed in the pRS316 vector are untagged. The pYES260, pRS316 and pGREG536 vectors allow for galactose-inducible expression via the GAL1 promoter. […] The FET3-lacZ plasmid was previously described (Kupchak et al., 2007). Plasmids derived from pADM4 carrying hyperactive alleles of Gpa1p (Gpa1p^Q323L) (Slessareva et al., 2006) and Gpa2p (Gpa2p^Q300L) (Harashima et al., 2002) driven by the ADH1 promoter were kindly provided by Dr. Henrik Dohlman (UNC Chapel Hill). A pRS316-based plasmid containing the STE2 gene under the control of the GAL1 promoter (Feng et al., 2000) was kindly provided by Dr. Nicholas G. Davis (Wayne State University).
Assays and growth conditions. Strains were maintained using standard protocol and grown in synthetic defined (SD) media with the appropriate amino acids to match the auxotrophies of the individual strains. Low Iron Medium (LIM) contains EDTA to limit iron-bioavailability and its composition has been previously described (Kupchak et al., 2007). […] Cells were allowed to grow to mid-log phase at which time the activity of the FET3 gene was monitored using a FET3-lacZ promoter-reporter construct. lacZ activities are presented as a percentage of activity seen in untreated cells expressing the appropriate empty expression vector control. […]

mPRγ = biological target: T3, mPRγ (Homo sapiens, UniProt Q9NXK6); assay: FET3-lacZ reporter repression in yeast expressing mPRγ; type: cell-based
T3 construct: Full length and truncated mPRγ and mPRα were expressed in wild type cells grown in 2% galactose from the pGREG536 vector; expressed in transfected cells; host or cells: Saccharomyces cerevisiae (BY4742 wild type; also gpa mutants), GAL1-driven plasmids
T3 sequence (Q9NXK6 1-330): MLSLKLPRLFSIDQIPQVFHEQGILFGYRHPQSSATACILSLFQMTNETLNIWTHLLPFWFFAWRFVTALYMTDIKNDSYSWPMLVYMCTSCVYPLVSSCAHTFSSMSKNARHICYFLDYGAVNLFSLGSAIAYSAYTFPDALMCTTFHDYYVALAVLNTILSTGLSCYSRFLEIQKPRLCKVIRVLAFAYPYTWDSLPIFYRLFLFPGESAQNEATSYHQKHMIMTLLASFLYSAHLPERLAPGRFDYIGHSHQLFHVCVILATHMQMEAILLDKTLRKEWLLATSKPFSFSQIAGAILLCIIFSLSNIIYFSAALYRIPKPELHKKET
Description: as §3
Assays and growth conditions. Strains were maintained using standard protocol and grown in synthetic defined (SD) media with the appropriate amino acids to match the auxotrophies of the individual strains. Low Iron Medium (LIM) contains EDTA to limit iron-bioavailability and its composition has been previously described (Kupchak et al., 2007). […] In brief, overnights of cells grown in SD-glucose media were re-inoculated into iron-deficient LIM to induce the expression of FET3. 2% galactose was used as a carbon source to induce full expression of PAQR genes driven by the GAL1 promoter, while 0.05% galactose/1.95% raffinose was used for reduced PAQR expression. All ligands were added to the growth medium upon re-inoculation into LIM. For experiments in which steroids were added as ligands, steroids were added from ethanol stocks and “untreated” controls are actually treated with an equal volume of ethanol to control for vehicle effects. Cells were allowed to grow to mid-log phase at which time the activity of the FET3 gene was monitored using a FET3-lacZ promoter-reporter construct. lacZ activities are presented as a percentage of activity seen in untreated cells expressing the appropriate empty expression vector control. For individual experiments, each data point has been done in triplicate and the error bars represent +/−1 standard deviation. All experiments were performed at least three times and a representative experiment is shown. EC50 values were obtained using the web-based BioDataFit software using sigmoidal curve-fitting. (web site changbioscience.com/stat/ec50.html)

mPRα = biological target: T4, mPRα (Homo sapiens, UniProt Q86WK9); assay: cell-based
T4 construct: Full length and truncated mPRγ and mPRα were expressed in wild type cells grown in 2% galactose from the pGREG536 vector; expressed in transfected cells; host or cells: Saccharomyces cerevisiae (BY4742 wild type; also gpa mutants), GAL1-driven plasmids (TPI1 promoter in pJK90)
T4 sequence (Q86WK9 1-346): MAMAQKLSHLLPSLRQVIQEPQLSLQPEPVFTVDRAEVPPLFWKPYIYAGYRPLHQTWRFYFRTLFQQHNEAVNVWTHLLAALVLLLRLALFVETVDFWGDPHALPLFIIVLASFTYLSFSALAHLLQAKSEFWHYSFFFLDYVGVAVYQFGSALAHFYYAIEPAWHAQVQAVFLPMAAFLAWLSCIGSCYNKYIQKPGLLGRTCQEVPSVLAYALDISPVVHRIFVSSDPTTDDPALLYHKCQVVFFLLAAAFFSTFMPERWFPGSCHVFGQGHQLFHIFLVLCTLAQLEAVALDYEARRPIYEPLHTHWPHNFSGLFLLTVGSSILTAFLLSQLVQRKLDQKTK
Description: Plasmids and primers. Human PAQRs were cloned into various vectors by PCR from commercially/publically available cDNAs. […] The OST4 open reading frame in pJK90 was replaced with the PAQR6 and mPRα open reading frames by gap repair. Primers for all cloning reactions are listed herein. Proteins expressed in pYES260 have an N-terminal 6×-histidine tag followed by a TEV protease cleavage site. Proteins expressed in pGREG536 have an N-terminal 7×-HA tag. Proteins expressed in the pRS316 vector are untagged. The pYES260, pRS316 and pGREG536 vectors allow for galactose-inducible expression via the GAL1 promoter. […] A pRS316-based plasmid containing the STE2 gene under the control of the GAL1 promoter (Feng et al., 2000) was kindly provided by Dr. Nicholas G. Davis (Wayne State University).
Assays and growth conditions. Strains were maintained using standard protocol and grown in synthetic defined (SD) media with the appropriate amino acids to match the auxotrophies of the individual strains. […] In brief, overnights of cells grown in SD-glucose media were re-inoculated into iron-deficient LIM to induce the expression of FET3. […] All ligands were added to the growth medium upon re-inoculation into LIM. For experiments in which steroids were added as ligands, steroids were added from ethanol stocks and “untreated” controls are actually treated with an equal volume of ethanol to control for vehicle effects. […] All experiments were performed at least three times and a representative experiment is shown. EC50 values were obtained using the web-based BioDataFit software using sigmoidal curve-fitting. (web site changbioscience.com/stat/ec50.html)

PAQR6 = biological target: T5, PAQR6 (Homo sapiens, UniProt Q6TCH4); assay: FET3-lacZ reporter repression in yeast expressing PAQR6; type: cell-based; settings: FET3-lacZ
T5 construct: expressed in transfected cells; host or cells: Saccharomyces cerevisiae BY4742, GAL1-driven pYES260 plasmid
T5 sequence (Q6TCH4 1-344): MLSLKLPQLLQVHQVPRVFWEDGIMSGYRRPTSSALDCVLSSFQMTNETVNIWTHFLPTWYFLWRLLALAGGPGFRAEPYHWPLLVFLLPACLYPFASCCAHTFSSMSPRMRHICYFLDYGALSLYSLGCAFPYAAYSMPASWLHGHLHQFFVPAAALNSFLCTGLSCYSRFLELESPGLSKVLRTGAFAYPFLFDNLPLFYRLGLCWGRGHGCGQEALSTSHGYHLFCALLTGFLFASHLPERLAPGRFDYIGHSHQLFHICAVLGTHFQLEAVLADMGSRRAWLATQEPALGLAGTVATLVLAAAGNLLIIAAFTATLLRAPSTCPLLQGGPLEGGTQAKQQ
Description: as §1, §2

pFET3-397 = pFET3-397 lacZ reporter in yeast with AMPK activator in the growth medium; type: cell-based, Saccharomyces cerevisiae; settings: 500 μM in the growth medium
Procedure: Most experiments were performed in a defined EDTA-containing medium known as low iron medium (LIM) (Eide et al., 1992). Iron-deficiency and repletion were generated by adding either 1 μM or 1 mM of FeCl3, respectively, to LIM. 2% galactose was used to fully induce GAL1-driven gene overexpression. Total sugar concentration was maintained at 2% by the addition of raffinose in those experiments in which the % galactose was modulated to decrease expression levels. Cells were allowed to grow to mid-log phase in LIM and β-galactosidase assays on permeabilized yeast were performed as previously described (Lyons et al., 2000). Ferroxidase activity assays on intact yeast cells followed published procedures using ferrozine as a colorimetric indicator of iron oxidation state (De Silva et al., 1995). All experiments include triplicate data points and each experiment was performed a minimum of three times. Representative experiments are shown. All error bars represent ±1 standard deviation within a single experiment. Because of the simplicity of β-galactosidase assays and the fact that Izh2p overexpression similarly affects both lacZ and ferroxidase activity, lacZ assays are shown for most experiments. For some strains with significant growth defects, such as snf1Δ, lacZ assays were not performed because of the low efficiency of co-transformation of lacZ reporter and overexpression plasmids. […]

[1] = FET3-lacZ, steroids up to 10 μM

## α-factor
Ste2p GPCR
  effect on FET3: no effect

## CC(=O)[C@@]1(O)CC[C@H]2[C@@H]3CCC4=CC(=O)CC[C@]4(C)[C@H]3CC[C@@]21C [17α-hydroxyprogesterone]
PAQR9
  activation of PAQR9 (in words): can be activated
mPRγ; [1]
  agonist activity on mPRγ (in words): effective activator
mPRγ; mPRγ column of Table 4, ligand alone
  EC50: 9.3 nM
mPRα; [1]
  agonist activity on mPRα (in words): effective activator
mPRα; further analysis of mPRα (pRS316 plasmid, 2% galactose per FIG. 7C)
  activation of mPRα, alterations at the 17 and 21 positions of the pregnane ring (in words): similarly effective activators
mPRα; mPRα column of Table 4, ligand alone, read-out: EC50
  EC50: 10.2 nM
mPRα; read-out: EC50 for the activation of mPRα
  EC50: ~10 nM
PAQR6
  activation of PAQR6 (in words): can be activated

## NC(=O)c1ncn([C@@H]2O[C@H](CO)[C@@H](O)[C@H]2O)c1N [AICAR]
pFET3-397
  effect on pFET3-397 activity: small but reproducible decrease
